Columns and labels:
Format in all cases: in vivo
[1] = tested on: economically important harmful plants (weed grases and broad-leaved weeds); test: Pre-emergence herbicide action against harmful plants in the presence of safener; settings: in combination with safener
Description: (§1) The damage to the plants is scored visually using a scale of 0-100%, in comparison to control plants: 0%=no noticeable effect compared to the untreated plant 100%=the treated plants dies. Seeds or rhizome pieces of monocotyledonous and dicotyledonous weed plants and crop plants were placed in sandy loam soil in plastic pots and covered with soil. The herbicide/safener active compound combinations according to the invention, formulated as water-soluble powders or suspensions, and in parallel tests the individual active compounds formulated in a corresponding manner, were then, at various dosages at a water application rate of 300 to 800 l/ha (converted), applied to the surface of the covering soil. After the treatment, the pots were placed in the greenhouse and kept under good growth conditions for the weeds and the crop plants. Visual scoring of the plant damage or emergence damage was carried out after the test plants had emerged after a test period of 2 to 4 weeks, in comparison to untreated controls.

[2] = tested on: economically important harmful plants (weed grases and broad-leaved weeds); test: Post-emergence herbicide action against harmful plants in the presence of safener; settings: in combination with safener
Description: (§2) The damage to the plants is scored visually using a scale of 0-100%, in comparison to control plants: 0%=no noticeable effect compared to the untreated plant 100%=the treated plants dies. Seeds or rhizome pieces of monocotyledonous and dicotyledonous harmful plants and crop plants are placed in sandy loam soil in plastic pots, covered with soil and cultivated in the greenhouse under good growth conditions. Alternatively, harmful plants encountered in paddy rice cultivation are cultivated in pots in which the surface of the soil is covered by up to 2 cm of water. Ten to twenty days after sowing, the test plants are treated at the one to three-leaf stage. The herbicide/safener active compound combinations according to the invention, formulated as water-soluble powders or suspensions, and in parallel tests the individual active compounds formulated in a corresponding manner, are sprayed at various dosages at a water application rate of 300 l/ha (converted) onto the green parts of the plants, and, after the test plants were left to stand in the greenhouse for about 2 to 3 weeks under optimum growth conditions, the effect of the preparations is scored visually in comparison to untreated controls. In the case of rice or harmful plants encountered in the cultivation of rice, the active compounds are also added directly to the irrigation water (application analogously to the so-called granule application) or sprayed onto the plants and into the irrigation water.

[3] = tested on: Triticum aestivum (spring wheat); test: Post-emergence herbicide action and safener action, spring wheat; settings: TRZAS
Description: as §2

Oryza sativa (rice) [4] = test: Post-emergence herbicide action and safener action, rice; settings: ORYSA
Description: as §2

Oryza sativa (rice) [5] = test: Pre-emergence herbicide action and safener action, rice; settings: herbicide (2.2.16) oxadiazon 400 g of AS/ha, safener (Ia) 75 g of AS/ha, ORYSA
Description: as §1

Hordeum vulgare (barley) [6] = test: Post-emergence herbicide action and safener action, barley; settings: safener (Ia) 100 g of AS/ha, HORVU
Description: as §2

Zea mays (corn) [7] = test: Seed treatment with safeners, corn; settings: ZEAMX
Description: (§3) The damage to the plants is scored visually using a scale of 0-100%, in comparison to control plants: 0%=no noticeable effect compared to the untreated plant 100%=the treated plants dies. Seeds of crop plants were mixed in bottles with the safeners according to the invention, formulated as suspension or emulsion concentrates, and water, and the mixture was shaken well so that the seeds were coated evenly with the formulation of the safener in question. The seeds or the emerged plants were then tested with herbicides in the pre- or post-emergence method according to the tests of examples 3.3 and 3.2, respectively.

[8] = tested on: Triticum aestivum (spring wheat); test: Seed treatment with safeners, spring wheat; settings: safener (Ia) 1.0 g of AS/kg seed, TRZAS
Description: as §3

Hordeum vulgare (barley) [9] = test: Seed treatment with safeners, barley; settings: HORVU
Description: as §3

Zea mays (corn) [10] = test: Pre-emergence herbicide action and safener action, corn; settings: ZEAMX
Description: as §1

Zea mays (corn) [11] = test: Post-emergence herbicide action and safener action, corn; settings: safener (Ia) 50 g of AS/ha, ZEAMX
Description: as §2

[12] = herbicide (1.2.1.58) thiencarbazone-methyl 15 g of AS/ha

NC(=O)c1ccc(C(F)(F)Cl)[nH]c1=O [safener (Ib), 2-oxo-6-difluorochloromethyl-1,2-dihydropyridine-3-carboxamide]
action of the respective herbicide against economically important harmful plants [1]: not, or not substantially, adversely affected | action of the herbicide against economically important harmful plants [2]: not, or not substantially, adversely affected

NC(=O)c1ccc(C(F)(F)F)[nH]c1=O [safener (Ia), 2-oxo-6-trifluoromethyl-1,2-dihydropyridine-3-carboxamide]
Reduction of the harmful effect ([3]; herbicide (1.1.1.10) tembotrione 20 g of AS/ha, safener (Ia) 80 g of AS/ha): category A (category A = 50-100% reduction of the harmful action) | Reduction of the harmful effect ([3]; herbicide (1.1.2.10) picolinafen 200 g of AS/ha, safener (Ia) 100 g of AS/ha): category A (category A = 50-100% reduction of the harmful action) | Reduction of the harmful effect ([3]; herbicide (1.2.1.14) mesosulfuron-methyl 40 g of AS/ha, safener (Ia) 80 g of AS/ha): category A (category A = 50-100% reduction of the harmful action) | Reduction of the harmful effect ([3]; herbicide (1.2.1.58) thiencarbazone-methyl 15 g of AS/ha, safener (Ia) 100 g of AS/ha): category A (category A = 50-100% reduction of the harmful action) | Reduction of the harmful effect ([3]; herbicide (1.3.1.20c) fenoxaprop-P-ethyl 100 g of AS/ha, safener (Ia) 20 g of AS/ha): category A (category A = 50-100% reduction of the harmful action) | Reduction of the harmful effect ([3]; herbicide (2.2.12) flumioxazin 100 g of AS/ha, safener (Ia) 50 g of AS/ha): category B (category B = 20-49% reduction of the harmful action) | Reduction of the harmful effect (Oryza sativa (rice) [4]; herbicide (1.1.1.4) mesotrione 400 g of AS/ha, safener (Ia) 75 g of AS/ha): category A (category A = 50-100% reduction of the harmful action) | Reduction of the harmful effect (Oryza sativa (rice) [4]; herbicide (1.1.1.4) mesotrione 600 g of AS/ha, applied to the water around the test plants (paddy rice conditions), safener (Ia) 75 g of AS/ha): category A (category A = 50-100% reduction of the harmful action) | Reduction of the harmful effect (Oryza sativa (rice) [4]; herbicide (1.2.1.15) foramsulfuron 15 g of AS/ha, safener (Ia) 100 g of AS/ha): category B (category B = 20-49% reduction of the harmful action) | Reduction of the harmful effect (Oryza sativa (rice) [4]; herbicide (1.2.1.58) thiencarbazone-methyl 10 g of AS/ha, safener (Ia) 300 g of AS/ha): category A (category A = 50-100% reduction of the harmful action) | Reduction of the harmful effect (Oryza sativa (rice) [4]; herbicide (1.2.1.62b) bispyribac-sodium 200 g of AS/ha, safener (Ia) 75 g of AS/ha): category A (category A = 50-100% reduction of the harmful action) | Reduction of the harmful effect (Oryza sativa (rice) [4]; herbicide (1.3.1.20c) fenoxaprop-P-ethyl 100 g of AS/ha, safener (Ia) 300 g of AS/ha): category A (category A = 50-100% reduction of the harmful action) | Reduction of the harmful effect (Oryza sativa (rice) [4]; herbicides (1.2.1.14) mesosulfuron-methyl + (1.2.1.11b) iodosulfuron-methyl-sodium 4 + 0.8 g of AS/ha, safener (Ia) 150 g of AS/ha): category A (category A = 50-100% reduction of the harmful action) | action of the respective herbicide against economically important harmful plants [1]: not, or not substantially, adversely affected | Reduction of the harmful effect (Oryza sativa (rice) [5]): category B (category B = 20-49% reduction of the harmful action) | Reduction of the harmful effect (Hordeum vulgare (barley) [6]; herbicide (1.1.1.10) tembotrione 20 g of AS/ha): category A (category A = 50-100% reduction of the harmful action) | Reduction of the harmful effect (Hordeum vulgare (barley) [6]; [12]): category A (category A = 50-100% reduction of the harmful action) | Reduction of the harmful effect (Hordeum vulgare (barley) [6]; herbicide (1.3.1.20c) fenoxaprop-P-ethyl 400 g of AS/ha): category A (category A = 50-100% reduction of the harmful action) | Reduction of the harmful effect (Zea mays (corn) [7]; herbicide (1.1.1.22) isoxaflutole 200 g of AS/ha, safener (Ia) 0.5 g of AS/kg seed): category A (category A = 50-100% reduction of the harmful action) | Reduction of the harmful effect (Zea mays (corn) [7]; herbicide (1.2.1.58) thiencarbazone-methyl 5 g of AS/ha, safener (Ia) 1.0 g of AS/kg seed): category A (category A = 50-100% reduction of the harmful action) | Reduction of the harmful effect ([8]; herbicide (1.2.1.14) mesosulfuron-methyl 30 g of AS/ha): category A (category A = 50-100% reduction of the harmful action) | Reduction of the harmful effect [8, 12]: category A (category A = 50-100% reduction of the harmful action) | action of the herbicide against economically important harmful plants [2]: not, or not substantially, adversely affected | Reduction of the harmful effect (Hordeum vulgare (barley) [9]; herbicide (1.2.1.14) mesosulfuron-methyl 30 g of AS/ha, safener (Ia) 0.5 g of AS/kg seed): category A (category A = 50-100% reduction of the harmful action) | Reduction of the harmful effect (Hordeum vulgare (barley) [9]; herbicide (1.2.1.58) thiencarbazone-methyl 15 g of AS/ha, safener (Ia) 1.0 g of AS/kg seed): category A (category A = 50-100% reduction of the harmful action) | Reduction of the harmful effect (Zea mays (corn) [10]; herbicide (1.1.1.22) isoxaflutole 300 g of AS/ha, safener (Ia) 300 g of AS/ha): category A (category A = 50-100% reduction of the harmful action) | Reduction of the harmful effect (Zea mays (corn) [10]; herbicide (1.4.4.17) flufenacet 125 g of AS/ha, safener (Ia) 150 g of AS/ha): category A (category A = 50-100% reduction of the harmful action) | Reduction of the harmful effect (Zea mays (corn) [11]; herbicide (1.2.1.11b) iodosulfuron-methyl-sodium 100 g of AS/ha): category B (category B = 20-49% reduction of the harmful action) | Reduction of the harmful effect (Zea mays (corn) [11]; herbicide (1.2.1.48) imazethapyr 100 g of AS/ha): category A (category A = 50-100% reduction of the harmful action) | Reduction of the harmful effect (Zea mays (corn) [11]; herbicide (2.2.12) flumioxazin 50 g of AS/ha): category A (category A = 50-100% reduction of the harmful action)

NC(=O)c1ccc(C(F)F)nc1O [safener (Ic), 2-oxo-6-difluoromethyl-1,2-dihydropyridine-3-carboxamide]
action of the respective herbicide against economically important harmful plants [1]: not, or not substantially, adversely affected | action of the herbicide against economically important harmful plants [2]: not, or not substantially, adversely affected

From patent publication US20080269052A1, “USE of PYRIDINE-2-OXY-3-CARBOXAMIDES AS SAFENERS” (priority 2007, published 2008)
